One assay relates to 143B. Briefly: Raptinal toxicity, 24 hour IC50 (sulforhodamine B assay for adherent cells). Type of assay: cell-based. The following applies: 143B (Human Osteosarcoma); 24 hour incubation; mean ± SD. Here is the method: (§1) Sulforhodamine B Assay for Adherent Cells.
(§2) Serial dilutions of compound in 100% DMSO were added in triplicate (2 μL to each well) to empty wells of a 96-well plate. Adherent cells (3T3, Hs888Lu, MCF-7, HeLa, WT-MEF, 4T1, B16-F10, SK-MEL-5, MIA PaCa2, BT-549, MDA-MB-436, 143B, HOS, H460, H1993) cells were added to each well (5×10^3 cells in 198 μL of RPMI 1640, DMEM or EMEM media). The plates were incubated for 24 hours. The media was removed from the plate and ice-cold trichloroacetic acid (100 μL of 10% w/v trichloroacetic acid) was added to the plates which were then incubated at 4° C. overnight to fix the cells. The trichloroacetic acid was removed and the wells washed with 200 μL of de-ionized water 5 times. Sulforhodamine B (200 μL of 0.04% sodium salt dissolved in 1% acetic acid) was added to each well and the plates incubated at room temperature for 30 min. Excess sulforhodamine B was removed by washing the plates 5 times with 1% acetic acid. The bound dye was released by the addition of unbuffered Tris-base (200 μL of 10 mM solution) and after a 30 min incubation at room temperature the absorbance at 510 nm was measured (Molecular Devices SpectraMax Plus 384 plate reader). The mean IC50 values and standard deviations were determined from three independent experiments.
For orientation: Sulforhodamine B stains cellular protein and so reports cell mass.

The next assay relates to 3T3. The assay is described as above. Type of assay: cell-based. The following applies: NIH3T3; 3T3 (Mouse Embryonic Fibroblasts); 24 hour incubation; mean ± SD. How it is done: as §1, §2
For the next assay, the system named is 4T1. The description is as above. Type of assay: cell-based. The following applies: 4T1 (Mouse Breast Cancer); 24 hour incubation; mean ± SD. Here is the method:
as §1, §2

The next assay relates to B16-F10. Described as above. Type of assay: cell-based. The conditions noted are these: B16-F10 (Mouse Melanoma); 24 hour incubation; mean ± SD. Here is the method: as §1, §2
The next assay concerns BT-549. Described as above. The conditions noted are these: BT-549 (Human Breast Cancer); 24 hour incubation; mean ± SD. Type of assay: cell-based. How it is done:
as §1, §2

The next assay deals with H1993. The assay is described as above. Type of assay: cell-based. The following applies: NCI-H1993; H1993 (Human Lung Cancer); 24 hour incubation; mean ± SD. How it is done:
as §1, §2

For the next assay, the system named is H460. Described as above. Type of assay: cell-based. The following applies: NCI-H460; H460 (Human Lung Cancer); 24 hour incubation; mean ± SD. How it is done: as §1, §2
A further assay concerns HOS. The assay is described as above. The conditions noted are these: HOS (Human Osteosarcoma); 24 hour incubation; mean ± SD. Type of assay: cell-based. Here is the method: as §1, §2
Another assay has as its system HeLa. The assay is described as above. Type of assay: cell-based. The following applies: HeLa (Human Cervical Cancer); 24 hour incubation; mean ± SD. Here is the method: as §1, §2
In a further assay the test system is Hs888Lu. The description is as above. Type of assay: cell-based. The following applies: Hs888Lu (Human lung fibroblast); 24 hour incubation; mean ± SD. How it is done:
as §1, §2

A further assay has as its system MCF-7. Described as above. Type of assay: cell-based. The conditions noted are these: MCF7; MCF-7 (Human Breast Cancer); 24 hour incubation; mean ± SD. Here is the method:
as §1, §2

Another assay concerns MDA-MB-436. The description is as above. Type of assay: cell-based. The conditions noted are these: MDA-MB-436 (Human Breast Cancer); 24 hour incubation; mean ± SD. How it is done: as §1, §2
The next assay concerns MIA PaCa-2. The description is as above. Type of assay: cell-based. The following applies: MIA PaCa-2 (Human Pancreatic Cancer); 24 hour incubation; mean ± SD. Here is the method: as §1, §2
For a further assay, the system named is SK-MEL-5. Described as above. Type of assay: cell-based. The conditions noted are these: SK-MEL-5 (Human Melanoma); 24 hour incubation; mean ± SD. How it is done:
as §1, §2

The next assay relates to WT-MEF. The assay is described as above. The conditions noted are these: Fibroblast; WT-MEF (Mouse Embryonic Fibroblasts); 24 hour incubation; mean ± SD. Type of assay: cell-based. Here is the method:
as §1, §2

A further assay deals with B16-F10 melanoma. Kind of assay: Syngeneic subcutaneous tumor model. Type of assay: in vivo, C57BL/6 mice. The conditions noted are these: 20 mg/kg IP once daily for 3 days. Here is the method:
All animal studies were performed with prior approval by the University of Illinois at Urbana-Champaign IACUC committee. […]. Seven days (for B16-F10) and six days (for 4T1) after inoculation, the mice were randomized based upon tumor size with 7 mice per group. Vehicle or compound was administered intraperitoneally as a corn oil DMSO suspension (300 μL of 10% DMSO in trans fat-free corn oil, 20 mg/kg) once daily for 3 consecutive days for B16-F10 and 4 consecutive days for 4T1 models. Tumor measurements were performed every other day using a caliper and tumor volume was calculated using the equation (0.5×l×w^2).

The next assay deals with U-937 cells. Type of assay: cell-based, Human. The following applies: 20 minute treatment, dihydroethidium, flow cytometry. Here is the method: Measurement of Cellular ROS Production.
U-937 cells (1 mL of 5×10^5 cells/mL) in Hank's buffered salt solution (HBSS) containing 5 mM glucose were treated with DMSO, 2 or 10 μM Raptinal, 10 μM thapsigargin, 100 μM etoposide (1% DMSO final) and incubated in the presence of 5 μM dihydroethidium a 37° C., 5% CO2 incubator for 20 minutes. […]. The levels of ethidium were assessed by flow cytometry. Live cells were analyzed based on gating on the forward and side scatter properties and the geometric mean of ethidium staining was determined using the software FCS Express.

Entries after “also recorded” stand apart in the source; their conditions may differ.

By IC50 is commonly meant the concentration that inhibits the measured activity by half. A lower IC50 goes with inhibition by little substance.

`O=CC1(C2(C=O)c3ccccc3-c3ccccc32)c2ccccc2-c2ccccc21` [Raptinal, [9,9′]bifluorenyl-9,9′-dicarbaldehyde]: the half-inhibitory concentration (IC50) in the assay on 143B stood at 1.2 ± 0.5 µM; with 3T3, 1 ± 0.2 µM; in the assay with 4T1, 1 ± 0.2 µM; with B16-F10 it was 1.6 ± 0.2 µM; with BT-549, 1.3 ± 0.4 µM; in the assay on H1993, 1.2 ± 0.1 µM. Also, the concentration for half-maximal inhibition (IC50) came out at 1.1 ± 0.1 µM in the assay with H460; 1 ± 0.1 µM in the assay on HOS; 0.6 ± 0.4 µM with HeLa; 1.7 ± 0.1 µM in the assay with Hs888Lu; 3.4 ± 0.1 µM with MCF-7; 1.1 ± 0.1 µM in the assay with MDA-MB-436. In addition, the concentration for half-maximal inhibition (IC50) with MIA PaCa-2 was 1.9 ± 0.8 µM; with SK-MEL-5, 0.7 ± 0.1 µM; in the assay on WT-MEF it was 2.4 ± 0.7 µM. Also, the “retardation of tumor mass relative to controls” value in the assay on B16-F10 melanoma is recorded as 60%. For the same molecule, in the assay on B16-F10 melanoma, the “retardation of tumor volume relative to controls” value worked out at 60%. The “production of reactive oxygen species (superoxide anion radicals)” value with U-937 cells is on record as “rapid accumulation of superoxide anion radicals; also recorded: observed”.

The values are drawn from patent US9682060B2, “Small molecules that induce intrinsic pathway apoptosis” (The Board of Trustees of the University of Illinois, priority 2015, dated 2017).
